Test results: paper PMC11859905, “Flavonoids as Potential Modulators of Pancreatic Lipase Catalytic Activity” (Pharmaceutics, 2025)
Where two headings read alike, the source gives them in different places.

Tests used:
[1] = molecular target: T1, porcine pancreatic lipase (Sus scrofa, UniProt P00591); assay: Inhibition kinetics of porcine pancreatic lipase (nonlinear regression, Solver); format: biochemical; parameters: compare it to the effects of the porcine pancreas (type II, EC 3.1.1.3); from tissue; host or cells: porcine pancreas (type II preparation); details: porcine pancreatic lipase
T1 sequence (P00591 1-450): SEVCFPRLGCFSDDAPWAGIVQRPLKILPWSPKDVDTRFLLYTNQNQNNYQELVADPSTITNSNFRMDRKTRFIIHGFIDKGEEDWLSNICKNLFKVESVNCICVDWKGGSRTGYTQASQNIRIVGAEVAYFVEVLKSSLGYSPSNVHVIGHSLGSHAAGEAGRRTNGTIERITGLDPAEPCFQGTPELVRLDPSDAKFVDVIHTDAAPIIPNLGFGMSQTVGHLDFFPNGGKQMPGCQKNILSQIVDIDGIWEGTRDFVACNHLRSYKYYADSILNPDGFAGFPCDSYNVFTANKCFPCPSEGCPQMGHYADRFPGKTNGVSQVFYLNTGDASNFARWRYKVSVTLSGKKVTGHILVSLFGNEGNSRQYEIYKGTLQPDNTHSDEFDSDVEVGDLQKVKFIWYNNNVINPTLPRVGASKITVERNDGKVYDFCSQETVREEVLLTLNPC

human pancreatic lipase = molecular target: T2, human pancreatic lipase (Homo sapiens, UniProt P16233); assay: In vitro assay using human pancreatic lipase (4-MUO hydrolysis, fluorometric); format: biochemical; details: for inhibitory activity against HPL (in words): at the maximum concentration that could be tested; for IC50: human PL 2 U/mL, 4-MUO 0.05 mM, mean ± SEM;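 for all read-outs here: Read-out is the initial rate of fluorescent 4-MU release as HPL cleaves the 4-MUO substrate, a rate that scales with the amount of enzyme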
T2 construct: PL from the human pancreas (triacylglycerol acyl hydrolase, EC 3.1.1.3); from tissue; host or cells: human pancreas
T2 sequence (P16233 17-465): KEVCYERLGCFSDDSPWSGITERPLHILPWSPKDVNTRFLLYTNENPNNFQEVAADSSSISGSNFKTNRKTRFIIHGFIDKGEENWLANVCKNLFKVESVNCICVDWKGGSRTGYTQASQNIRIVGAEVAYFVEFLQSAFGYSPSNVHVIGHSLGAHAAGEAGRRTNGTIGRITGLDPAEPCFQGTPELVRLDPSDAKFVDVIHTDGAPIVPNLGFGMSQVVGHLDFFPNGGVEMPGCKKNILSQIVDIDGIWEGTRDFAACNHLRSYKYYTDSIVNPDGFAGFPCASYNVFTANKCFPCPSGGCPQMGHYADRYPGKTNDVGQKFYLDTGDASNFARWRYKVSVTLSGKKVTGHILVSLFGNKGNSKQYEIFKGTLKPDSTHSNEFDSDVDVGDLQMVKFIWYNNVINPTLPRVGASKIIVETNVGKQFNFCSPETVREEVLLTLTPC

[2] = molecular target: T1, porcine pancreatic lipase; assay: In vitro assay using porcine pancreatic lipase (4-MUO hydrolysis, fluorometric); details: for inhibitory activity against PPL (in words): at the maximum concentration that could be tested;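 for all read-outs here: product 4-methylumbeliferone formation tracked fluorometrically, catalytic rate from RFU slope over the 10–30 min window, compounds checked beforehand for own fluorescence, at least three independent experiments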
[3] = read-out: PL Inhibition (%) ± SEM, Human
[4] = read-out: PL Inhibition (%) ± SEM, Porcine
[5] = at 50 μM, read-out: PL Inhibition (%) ± SEM, Human
[6] = read-out: PL Inhibition (%) ± SEM, Human, at 50 μM

SMILES: O=c1c(O)c(-c2ccc(O)c(O)c2)oc2cc(O)cc(O)c12 [Flavonoid 27, Quercetin]
- Inhibition Model [1]: Competitive
- Vmax ([1]; ± SEM, in µmol/min): 354 ± 3
- inhibition at 75 µM (human pancreatic lipase; read-out: PL Inhibition (%) ± SEM, Human, at 75 μM): < 46%

SMILES: O=c1c(O)c(-c2ccc(O)cc2)oc2cc(O)cc(O)c12 [Flavonoid 24, Kaempferol]
- IC50 ([2]; read-out: IC50 (μM) ± SEM, Porcine, porcine PL 0.04 mg/mL, 4-MUO 0.05 mM, mean ± SEM): 79 ± 6 µM
- inhibition at 100 µM (human pancreatic lipase; [3]): 39 ± 3%

SMILES: O=c1c(-c2ccc(O)cc2)coc2cc(O)cc(O)c12 [Flavonoid 17, Genistein]
- inhibitory activity against PPL (in words) [2]: did not show significant inhibitory activity
- inhibition at 100 µM [2, 4]: < 30%
- inhibition at 100 µM (human pancreatic lipase; [3]): < 30%
- inhibitory activity against HPL (in words) (human pancreatic lipase): did not show significant inhibitory activity

SMILES: O=c1cc(-c2ccc(O)c(O)c2)oc2cccc(O)c12 [Flavonoid 8]
- inhibition at 50 µM [2, 4]: 46 ± 2%
- inhibition at 50 µM (human pancreatic lipase; [3]): < 30%

SMILES: CCCCc1c(-c2ccc(O)c(O)c2)oc2cc(O)cc(O)c2c1=O [Flavonoid 28]
- IC50 [2]: 13 ± 1 µM
- IC50 (human pancreatic lipase): 42 ± 2 µM

SMILES: Oc1cc(O)c2c(c1)OC(c1cc(O)c(O)c(O)c1)C(O)C2 (single isomer, unassigned; (-)) [Flavonoid 40, (–)-Epigallocatechin]
- inhibition at 100 µM [2, 4]: < 30%
- inhibition at 100 µM (human pancreatic lipase; [3]): < 30%

SMILES: O=c1cc(-c2cccc(O)c2)oc2cc(O)ccc12 [Flavonoid 10]
- inhibition at 100 µM [2, 4]: < 30%
- inhibition at 100 µM (human pancreatic lipase; [3]): < 30%

SMILES: O=c1cc(-c2ccccc2)oc2c(O)c(O)cc(O)c12 [Flavonoid 42, Norwogonin]
- IC50 [2]: 98 ± 9 µM
- IC50 (human pancreatic lipase): 79 ± 3 µM

SMILES: O=c1cc(-c2cccc(O)c2)oc2cccc(O)c12 [Flavonoid 6]
- inhibition at 25 µM [2, 4]: < 30%
- inhibition at 25 µM (human pancreatic lipase; [3]): 32.3 ± 0.1%

SMILES: O=c1cc(-c2cc(O)c(O)c(O)c2)oc2cccc(O)c12 [Flavonoid 36]
- IC50 [2]: 20 ± 3 µM
- IC50 (human pancreatic lipase): 7 ± 1 µM

SMILES: Oc1cc(O)c2c(c1)O[C@H](c1ccc(O)c(O)c1)[C@H](O)C2 [Flavonoid 39, (–)-Epicatechin]
- inhibition at 100 µM [2, 4]: < 30%
- inhibition at 100 µM (human pancreatic lipase; [3]): < 30%

SMILES: O=c1cc(-c2ccc(O)cc2)oc2cccc(O)c12 [Flavonoid 7]
- inhibition at 25 µM [2, 4]: < 30%
- inhibition at 25 µM (human pancreatic lipase; [3]): < 30%

SMILES: CCCCCCc1c(-c2ccc(O)c(O)c2)oc2cc(O)cc(O)c2c1=O [Flavonoid 29]
- IC50 [2]: 10.1 ± 0.4 µM
- IC50 (human pancreatic lipase): 16.4 ± 0.7 µM

SMILES: O=c1cc(-c2ccc(O)c(O)c2)oc2c(O)c(O)ccc12 [Flavonoid 43]
- inhibition at 50 µM [2, 4]: < 30%
- inhibition at 50 µM (human pancreatic lipase; [5]): < 30%

SMILES: O=c1c(O)c(-c2ccc(O)cc2)oc2c(O)c(O)ccc12 [Flavonoid 44]
- inhibition at 50 µM [2, 4]: 42 ± 2%
- inhibition at 50 µM (human pancreatic lipase; [5]): < 30%

SMILES: O=c1c(O[C@@H]2O[C@H](CO)[C@@H](O)[C@H](O)[C@H]2O)c(-c2ccc(O)cc2)oc2cc(O)cc(O)c12 [Flavonoid 25, Astragalin]
- inhibitory activity against PPL (in words) [2]: did not show significant inhibitory activity
- inhibition at 50 µM [2, 4]: < 30%
- inhibition at 50 µM (human pancreatic lipase; [5]): 34 ± 1%
- inhibitory activity against HPL (in words) (human pancreatic lipase): did not show significant inhibitory activity

SMILES: O=c1c(O)c(-c2ccc(O[C@@H]3O[C@H](CO)[C@@H](O)[C@H](O)[C@H]3O)c(O)c2)oc2cc(O)cc(O)c12 [Flavonoid 34, Spiraeoside]
- inhibitory activity against PPL (in words) [2]: did not show significant inhibitory activity
- inhibition at 50 µM [2, 4]: < 30%
- inhibition at 50 µM (human pancreatic lipase; [5]): < 30%
- inhibitory activity against HPL (in words) (human pancreatic lipase): did not show significant inhibitory activity

SMILES: O=c1cc(-c2ccccc2)oc2cccc(O)c12 [Flavonoid 5]
- inhibition at 50 µM [2, 4]: < 30%
- inhibition at 50 µM (human pancreatic lipase; [5]): < 30%

SMILES: O=c1c(O)c(-c2ccc(O)c(O)c2)oc2c(O[C@@H]3O[C@H](CO)[C@@H](O)[C@H](O)[C@H]3O)c(O)cc(O)c12 [Flavonoid 48, Gossypin]
- inhibitory activity against PPL (in words) [2]: did not show significant inhibitory activity
- inhibition at 12.5 µM [2, 4]: < 30%
- inhibition at 12.5 µM (human pancreatic lipase; at 12.5 μM, read-out: PL Inhibition (%) ± SEM, Human): < 30%
- inhibitory activity against HPL (in words) (human pancreatic lipase): did not show significant inhibitory activity

SMILES: O=c1cc(-c2ccc(O)cc2)oc2cc(O)cc(O)c12 [Flavonoid 15, Apigenin]
- IC50 [2]: 41 ± 1 µM
- IC50 (human pancreatic lipase): 75 ± 2 µM

SMILES: O=c1c(O)c(-c2ccc(O)c(O)c2)oc2c(O)c(O)cc(O)c12 [Flavonoid 47, Gossypetin]
- inhibition at 50 µM [2, 4]: 36 ± 3%
- inhibition at 50 µM (human pancreatic lipase; [6]): 37 ± 1%

SMILES: O=c1c(O)c(-c2ccc(O)c(O)c2)oc2c(O)c(O)ccc12 [Flavonoid 45, Melanoxetin]
- inhibition at 25 µM [2, 4]: < 30%
- inhibition at 25 µM (human pancreatic lipase; [3]): < 30%

SMILES: O=c1cc(-c2cccc(O)c2)oc2ccccc12 [Flavonoid 2]
- inhibition at 100 µM [2, 4]: < 30%
- inhibition at 100 µM (human pancreatic lipase; [3]): < 30%

SMILES: O=c1c(O)c(-c2ccccc2)oc2cc(O)cc(O)c12 [Flavonoid 23, Galangin]
- inhibition at 50 µM [2, 4]: 41 ± 1%
- inhibition at 50 µM (human pancreatic lipase; [5]): < 30%

SMILES: O=c1cc(-c2ccccc2)oc2cc(O)cc(O)c12 [Flavonoid 13, Chrysin]
- inhibition at 50 µM [2, 4]: < 30%
- inhibition at 50 µM (human pancreatic lipase; [5]): < 30%

SMILES: O=c1cc(-c2ccc(O)c(O)c2)oc2cc(O)cc(O)c12 [Flavonoid 16, Luteolin]
- IC50 [2]: 32 ± 2 µM
- inhibition at 50 µM (human pancreatic lipase; [5]): 54 ± 2%

SMILES: O=c1c(O)c(-c2ccc(O)cc2)oc2cc(OC3OC(CO)C(O)C(O)C3O)cc(O)c12 (stereo not shown) [Flavonoid 26, Populnin]
- inhibitory activity against PPL (in words) [2]: did not show significant inhibitory activity
- inhibition at 100 µM [2, 4]: < 30%
- inhibition at 100 µM (human pancreatic lipase; [3]): < 30%
- inhibitory activity against HPL (in words) (human pancreatic lipase): did not show significant inhibitory activity

SMILES: O=c1c(O)c(-c2ccc(O)c(O)c2)oc2cc(O[C@@H]3O[C@H](CO)[C@@H](O)[C@H](O)[C@H]3O)cc(O)c12 [Flavonoid 33, Quercimeritrin]
- inhibitory activity against PPL (in words) [2]: did not show significant inhibitory activity
- inhibition at 50 µM [2, 4]: < 30%
- inhibition at 50 µM (human pancreatic lipase; [5]): < 30%
- inhibitory activity against HPL (in words) (human pancreatic lipase): did not show significant inhibitory activity

SMILES: O=c1c(O)c(-c2ccc(O)c(O)c2)oc2ccccc12 [Flavonoid 18]
- inhibitory activity against PPL (in words) [2]: did not show significant inhibitory activity
- inhibition at 50 µM [2, 4]: 41 ± 4%
- inhibition at 50 µM (human pancreatic lipase; [5]): 44 ± 5%
- inhibitory activity against HPL (in words) (human pancreatic lipase): did not show significant inhibitory activity

SMILES: C[C@@H]1O[C@@H](OC[C@H]2O[C@@H](Oc3c(-c4ccc(O)c(O)c4)oc4cc(O)cc(O)c4c3=O)[C@H](O)[C@@H](O)[C@@H]2O)[C@H](O)[C@H](O)[C@H]1O [Flavonoid 32, Rutin]
- inhibitory activity against PPL (in words) [2]: did not show significant inhibitory activity
- inhibition at 50 µM [2, 4]: < 30%
- inhibition at 50 µM (human pancreatic lipase; [5]): 34 ± 1%
- inhibitory activity against HPL (in words) (human pancreatic lipase): did not show significant inhibitory activity

SMILES: O=c1cc(-c2ccccc2)oc2ccccc12 [Flavonoid 1, Flavone]
- inhibition at 100 µM [2, 4]: < 30%
- inhibition at 100 µM (human pancreatic lipase; [3]): < 30%

SMILES: O=c1cc(-c2ccc(O)c(O)c2)oc2ccccc12 [Flavonoid 4]
- inhibition at 100 µM [2, 4]: < 30%
- inhibition at 100 µM (human pancreatic lipase; [3]): < 30%

SMILES: O=c1cc(-c2ccccc2)oc2cc(O)ccc12 [Flavonoid 9]
- inhibition at 50 µM [2, 4]: < 30%
- inhibition at 50 µM (human pancreatic lipase; [6]): < 30%

SMILES: O=c1c(O)c(-c2ccc(O)cc2)oc2c(O)c(O)cc(O)c12 [Flavonoid 46, Herbacetin]
- inhibition at 50 µM [2, 4]: 46 ± 4%
- inhibition at 50 µM (human pancreatic lipase; [5]): 39 ± 3%

SMILES: O=c1c(OC2OC(CO)C(O)C(O)C2O)c(-c2ccc(O)c(O)c2)oc2cc(O)cc(O)c12 (stereo not shown) [Flavonoid 31]
- inhibitory activity against PPL (in words) [2]: did not show significant inhibitory activity
- inhibition at 50 µM [2, 4]: < 30%
- inhibition at 50 µM (human pancreatic lipase; [5]): < 30%
- inhibitory activity against HPL (in words) (human pancreatic lipase): did not show significant inhibitory activity

SMILES: O=c1c(OC2OC(CO)C(O)C(O)C2O)c(-c2ccc(OC3OC(CO)C(O)C(O)C3O)c(O)c2)oc2cc(O)cc(O)c12 (stereo not shown) [Flavonoid 35]
- inhibitory activity against PPL (in words) [2]: did not show significant inhibitory activity
- inhibition at 50 µM [2, 4]: < 30%
- inhibitory activity against HPL (in words) (human pancreatic lipase): did not show significant inhibitory activity
- inhibition at 50 µM (human pancreatic lipase; [6]): < 30%

SMILES: O=c1cc(-c2cccc(O)c2)oc2cc(O)cc(O)c12 [Flavonoid 14]
- IC50 [2]: 73 ± 7 µM
- IC50 (human pancreatic lipase): 54 ± 5 µM

SMILES: O=c1cc(-c2ccc(O)cc2)oc2ccccc12 [Flavonoid 3]
- inhibition at 25 µM [2, 4]: < 30%
- inhibition at 25 µM (human pancreatic lipase; [3]): < 30%
